Assay results taken from the NIST ThermoML archive (doi:10.1021/je200883w).
Numbers after ± are expanded uncertainties.

Settings: 101.33 kPa, Liquid; for viscosity: Concentric cylinders viscometry; for mass density: Vibrating tube method

CCCCn1cc[n+](C)c1C.O=S(=O)([N-]S(=O)(=O)C(F)(F)F)C(F)(F)F
Settings	mass density [kg/m3]	viscosity [mPa·s]
273.15 K	1443.3 ± 2	518.55 ± 20
278.15 K	1438.4 ± 2	353.44 ± 13
283.15 K	1433.5 ± 2	249.26 ± 8.2
288.15 K	1428.7 ± 2	180.5 ± 5.5
293.15 K	1424 ± 2	134.22 ± 3.8
298.15 K	1419.4 ± 1.9	102.19 ± 2.7
303.15 K	1414.8 ± 1.9	79.46 ± 2
308.15 K	1410.1 ± 1.9	62.97 ± 1.5
313.15 K	1405.5 ± 1.9	50.76 ± 1.2
318.15 K	1401 ± 1.9	41.53 ± 0.99
323.15 K	1396.4 ± 1.9	34.45 ± 0.82
328.15 K	1391.8 ± 1.9	28.91 ± 0.68
333.15 K	1387.3 ± 1.9	24.54 ± 0.58
338.15 K	1382.8 ± 1.9	21.03 ± 0.49
343.15 K	1378.4 ± 1.9	18.17 ± 0.42
348.15 K	1373.9 ± 1.9	15.83 ± 0.37
353.15 K	1369.3 ± 1.8	13.9 ± 0.32
358.15 K	1364.4 ± 1.8	12.3 ± 0.28
363.15 K	1359.8 ± 1.8	10.94 ± 0.25
368.15 K	1355.5 ± 1.8	9.794 ± 0.23
373.15 K	1351.3 ± 1.8	8.813 ± 0.2
